The text below walks through data of ChEMBL document CHEMBL3991601, “The target landscape of clinical kinase drugs” (Science, 2017).

In experiment [1] the target is T1, Discoidin domain-containing receptor 2 (Homo sapiens, UniProt Q16832).
T1 sequence (Q16832 whole entry): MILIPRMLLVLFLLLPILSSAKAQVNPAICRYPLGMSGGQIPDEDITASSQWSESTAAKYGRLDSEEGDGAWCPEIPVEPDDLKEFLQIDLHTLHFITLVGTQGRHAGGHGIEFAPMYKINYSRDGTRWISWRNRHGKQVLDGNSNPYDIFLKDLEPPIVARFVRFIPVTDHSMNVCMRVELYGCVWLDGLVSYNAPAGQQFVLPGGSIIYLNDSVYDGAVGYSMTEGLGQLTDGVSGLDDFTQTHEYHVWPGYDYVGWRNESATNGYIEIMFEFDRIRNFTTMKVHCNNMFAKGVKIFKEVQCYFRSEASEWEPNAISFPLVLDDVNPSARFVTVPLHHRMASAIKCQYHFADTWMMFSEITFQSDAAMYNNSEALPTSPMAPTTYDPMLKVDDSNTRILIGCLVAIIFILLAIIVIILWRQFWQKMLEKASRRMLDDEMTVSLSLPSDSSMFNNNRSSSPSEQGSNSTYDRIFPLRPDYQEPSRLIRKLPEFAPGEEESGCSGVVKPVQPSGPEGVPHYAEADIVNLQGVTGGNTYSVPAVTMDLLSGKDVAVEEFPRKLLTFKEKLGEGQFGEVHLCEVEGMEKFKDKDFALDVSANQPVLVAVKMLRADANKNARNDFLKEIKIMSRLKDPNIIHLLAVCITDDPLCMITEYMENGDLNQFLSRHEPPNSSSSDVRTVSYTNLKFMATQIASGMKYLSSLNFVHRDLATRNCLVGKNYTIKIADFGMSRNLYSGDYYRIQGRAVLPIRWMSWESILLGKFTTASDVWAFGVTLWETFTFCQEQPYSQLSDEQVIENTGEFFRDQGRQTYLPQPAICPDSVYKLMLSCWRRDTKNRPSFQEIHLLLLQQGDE

Experiment [2] concerns the target T2, Probable ATP-dependent RNA helicase DDX6 (Homo sapiens, UniProt P26196).
T2 sequence (P26196 whole entry): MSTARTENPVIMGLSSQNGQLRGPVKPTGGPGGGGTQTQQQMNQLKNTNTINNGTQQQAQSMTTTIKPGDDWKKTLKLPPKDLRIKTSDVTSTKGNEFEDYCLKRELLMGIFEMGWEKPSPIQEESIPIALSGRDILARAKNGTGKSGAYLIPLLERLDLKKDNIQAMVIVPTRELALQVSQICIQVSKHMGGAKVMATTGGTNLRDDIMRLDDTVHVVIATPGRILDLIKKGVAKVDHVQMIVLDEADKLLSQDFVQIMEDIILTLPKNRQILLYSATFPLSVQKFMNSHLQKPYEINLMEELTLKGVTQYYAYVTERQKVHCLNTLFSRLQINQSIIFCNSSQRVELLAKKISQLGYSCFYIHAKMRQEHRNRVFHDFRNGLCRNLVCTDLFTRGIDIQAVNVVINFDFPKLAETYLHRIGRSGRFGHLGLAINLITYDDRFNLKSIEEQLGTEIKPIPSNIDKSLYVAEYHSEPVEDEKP

Experiment [3] addresses T3, Serine/threonine-protein kinase TBK1 (Homo sapiens, UniProt Q9UHD2).
T3 sequence (Q9UHD2 whole entry): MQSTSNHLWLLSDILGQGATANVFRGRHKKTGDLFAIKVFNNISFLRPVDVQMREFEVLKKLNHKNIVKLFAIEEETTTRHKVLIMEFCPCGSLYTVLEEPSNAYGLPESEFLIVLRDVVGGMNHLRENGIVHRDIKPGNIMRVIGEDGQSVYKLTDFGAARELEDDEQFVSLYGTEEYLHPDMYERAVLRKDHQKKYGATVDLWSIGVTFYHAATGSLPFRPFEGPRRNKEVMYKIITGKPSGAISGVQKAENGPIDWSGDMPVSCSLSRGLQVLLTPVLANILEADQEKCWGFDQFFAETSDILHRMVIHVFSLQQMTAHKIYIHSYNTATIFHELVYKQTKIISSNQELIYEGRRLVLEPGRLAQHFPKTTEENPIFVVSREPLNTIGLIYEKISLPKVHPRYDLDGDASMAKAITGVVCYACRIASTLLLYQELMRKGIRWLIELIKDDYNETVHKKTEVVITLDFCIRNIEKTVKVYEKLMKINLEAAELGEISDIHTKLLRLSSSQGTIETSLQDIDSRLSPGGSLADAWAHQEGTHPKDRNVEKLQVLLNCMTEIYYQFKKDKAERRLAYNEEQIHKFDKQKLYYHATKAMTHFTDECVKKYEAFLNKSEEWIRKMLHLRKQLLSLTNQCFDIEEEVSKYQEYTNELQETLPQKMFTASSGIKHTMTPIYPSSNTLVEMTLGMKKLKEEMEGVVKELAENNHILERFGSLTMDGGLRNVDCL

Experiment [4] concerns the target Myosin light chain kinase, smooth muscle (Homo sapiens, UniProt Q15746).
The target of experiment [5] is Epidermal growth factor receptor (Homo sapiens, UniProt P00533).
Epidermal growth factor receptor, sequence (P00533 whole entry, the tested form may be a part): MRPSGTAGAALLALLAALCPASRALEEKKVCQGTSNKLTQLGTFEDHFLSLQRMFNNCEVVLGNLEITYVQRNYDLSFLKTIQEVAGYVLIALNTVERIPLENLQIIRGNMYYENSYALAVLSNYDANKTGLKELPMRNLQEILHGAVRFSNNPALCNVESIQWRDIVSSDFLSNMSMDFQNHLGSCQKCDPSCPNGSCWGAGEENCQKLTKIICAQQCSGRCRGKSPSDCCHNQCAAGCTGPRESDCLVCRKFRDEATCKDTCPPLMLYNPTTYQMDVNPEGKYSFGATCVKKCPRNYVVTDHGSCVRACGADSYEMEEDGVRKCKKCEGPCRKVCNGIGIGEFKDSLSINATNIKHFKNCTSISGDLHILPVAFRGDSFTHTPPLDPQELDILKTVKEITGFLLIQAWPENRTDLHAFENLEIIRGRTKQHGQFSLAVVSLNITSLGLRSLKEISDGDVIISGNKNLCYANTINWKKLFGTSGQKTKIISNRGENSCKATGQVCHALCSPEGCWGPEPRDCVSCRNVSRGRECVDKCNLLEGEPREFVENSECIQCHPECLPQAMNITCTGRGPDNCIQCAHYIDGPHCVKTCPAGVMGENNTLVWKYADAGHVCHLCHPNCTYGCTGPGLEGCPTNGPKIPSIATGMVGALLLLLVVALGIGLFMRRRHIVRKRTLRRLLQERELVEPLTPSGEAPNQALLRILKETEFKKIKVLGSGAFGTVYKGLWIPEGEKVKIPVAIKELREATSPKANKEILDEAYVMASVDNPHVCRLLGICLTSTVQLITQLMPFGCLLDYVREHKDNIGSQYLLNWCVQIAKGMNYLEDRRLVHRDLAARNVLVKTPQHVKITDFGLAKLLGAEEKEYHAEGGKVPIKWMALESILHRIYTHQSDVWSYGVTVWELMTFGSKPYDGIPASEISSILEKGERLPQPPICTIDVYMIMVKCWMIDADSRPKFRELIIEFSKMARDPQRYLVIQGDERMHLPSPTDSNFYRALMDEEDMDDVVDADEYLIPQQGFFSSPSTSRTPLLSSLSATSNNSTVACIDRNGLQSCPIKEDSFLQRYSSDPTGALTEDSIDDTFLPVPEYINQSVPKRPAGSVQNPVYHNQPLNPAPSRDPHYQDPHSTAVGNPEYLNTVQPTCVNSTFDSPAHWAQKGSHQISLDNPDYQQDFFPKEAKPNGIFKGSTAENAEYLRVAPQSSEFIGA
Experiment [6] deals with Epithelial discoidin domain-containing receptor 1 (Homo sapiens, UniProt Q08345).
Epithelial discoidin domain-containing receptor 1, sequence (Q08345 whole entry, the tested form may be a part): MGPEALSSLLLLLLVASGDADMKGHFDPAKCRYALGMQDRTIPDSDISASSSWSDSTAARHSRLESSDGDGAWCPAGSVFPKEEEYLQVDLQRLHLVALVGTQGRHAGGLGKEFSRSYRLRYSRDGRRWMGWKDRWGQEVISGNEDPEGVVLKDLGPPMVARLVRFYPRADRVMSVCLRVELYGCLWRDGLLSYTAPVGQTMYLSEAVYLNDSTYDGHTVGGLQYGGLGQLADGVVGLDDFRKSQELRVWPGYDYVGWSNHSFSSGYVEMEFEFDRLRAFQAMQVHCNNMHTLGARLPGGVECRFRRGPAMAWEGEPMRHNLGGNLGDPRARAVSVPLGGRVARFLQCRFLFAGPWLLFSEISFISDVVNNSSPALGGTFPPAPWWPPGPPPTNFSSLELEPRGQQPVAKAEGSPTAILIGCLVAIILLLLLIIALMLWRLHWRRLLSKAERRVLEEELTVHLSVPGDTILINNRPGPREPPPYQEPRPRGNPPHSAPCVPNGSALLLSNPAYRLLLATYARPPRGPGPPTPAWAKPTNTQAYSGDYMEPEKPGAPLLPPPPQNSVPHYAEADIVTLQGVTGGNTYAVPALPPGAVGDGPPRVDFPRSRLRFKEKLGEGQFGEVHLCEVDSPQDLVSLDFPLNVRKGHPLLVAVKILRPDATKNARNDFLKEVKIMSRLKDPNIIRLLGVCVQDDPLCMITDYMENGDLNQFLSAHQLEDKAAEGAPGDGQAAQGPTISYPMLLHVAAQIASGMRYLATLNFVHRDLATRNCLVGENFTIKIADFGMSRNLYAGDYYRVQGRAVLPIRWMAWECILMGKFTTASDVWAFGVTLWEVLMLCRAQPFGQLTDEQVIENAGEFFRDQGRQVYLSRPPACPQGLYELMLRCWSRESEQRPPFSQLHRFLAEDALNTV
The target in experiment [7] is T4, STE20-related kinase adapter protein alpha (Homo sapiens, UniProt Q7RTN6).
T4 sequence (Q7RTN6 whole entry): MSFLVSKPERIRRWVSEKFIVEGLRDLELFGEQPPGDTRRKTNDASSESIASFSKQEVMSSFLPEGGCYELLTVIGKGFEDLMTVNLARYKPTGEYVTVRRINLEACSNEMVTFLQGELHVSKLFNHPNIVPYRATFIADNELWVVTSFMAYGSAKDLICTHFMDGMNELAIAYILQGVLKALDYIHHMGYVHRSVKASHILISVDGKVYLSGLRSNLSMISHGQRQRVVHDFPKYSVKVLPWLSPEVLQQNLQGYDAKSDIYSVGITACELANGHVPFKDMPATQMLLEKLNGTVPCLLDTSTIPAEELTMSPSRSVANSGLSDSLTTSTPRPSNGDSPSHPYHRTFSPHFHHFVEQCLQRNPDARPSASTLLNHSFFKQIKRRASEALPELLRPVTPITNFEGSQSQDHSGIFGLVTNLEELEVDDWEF

Molecules are shown by their SMILES. Calls of active or inactive are those of the source. Rule as the data show it, for most assays here: actives have a measured Kd and inactives only a lower limit.
Also: in the data inactive means no Kd found up to 30 µM.

Myosin light chain kinase, smooth muscle, sequence (Q15746 whole entry): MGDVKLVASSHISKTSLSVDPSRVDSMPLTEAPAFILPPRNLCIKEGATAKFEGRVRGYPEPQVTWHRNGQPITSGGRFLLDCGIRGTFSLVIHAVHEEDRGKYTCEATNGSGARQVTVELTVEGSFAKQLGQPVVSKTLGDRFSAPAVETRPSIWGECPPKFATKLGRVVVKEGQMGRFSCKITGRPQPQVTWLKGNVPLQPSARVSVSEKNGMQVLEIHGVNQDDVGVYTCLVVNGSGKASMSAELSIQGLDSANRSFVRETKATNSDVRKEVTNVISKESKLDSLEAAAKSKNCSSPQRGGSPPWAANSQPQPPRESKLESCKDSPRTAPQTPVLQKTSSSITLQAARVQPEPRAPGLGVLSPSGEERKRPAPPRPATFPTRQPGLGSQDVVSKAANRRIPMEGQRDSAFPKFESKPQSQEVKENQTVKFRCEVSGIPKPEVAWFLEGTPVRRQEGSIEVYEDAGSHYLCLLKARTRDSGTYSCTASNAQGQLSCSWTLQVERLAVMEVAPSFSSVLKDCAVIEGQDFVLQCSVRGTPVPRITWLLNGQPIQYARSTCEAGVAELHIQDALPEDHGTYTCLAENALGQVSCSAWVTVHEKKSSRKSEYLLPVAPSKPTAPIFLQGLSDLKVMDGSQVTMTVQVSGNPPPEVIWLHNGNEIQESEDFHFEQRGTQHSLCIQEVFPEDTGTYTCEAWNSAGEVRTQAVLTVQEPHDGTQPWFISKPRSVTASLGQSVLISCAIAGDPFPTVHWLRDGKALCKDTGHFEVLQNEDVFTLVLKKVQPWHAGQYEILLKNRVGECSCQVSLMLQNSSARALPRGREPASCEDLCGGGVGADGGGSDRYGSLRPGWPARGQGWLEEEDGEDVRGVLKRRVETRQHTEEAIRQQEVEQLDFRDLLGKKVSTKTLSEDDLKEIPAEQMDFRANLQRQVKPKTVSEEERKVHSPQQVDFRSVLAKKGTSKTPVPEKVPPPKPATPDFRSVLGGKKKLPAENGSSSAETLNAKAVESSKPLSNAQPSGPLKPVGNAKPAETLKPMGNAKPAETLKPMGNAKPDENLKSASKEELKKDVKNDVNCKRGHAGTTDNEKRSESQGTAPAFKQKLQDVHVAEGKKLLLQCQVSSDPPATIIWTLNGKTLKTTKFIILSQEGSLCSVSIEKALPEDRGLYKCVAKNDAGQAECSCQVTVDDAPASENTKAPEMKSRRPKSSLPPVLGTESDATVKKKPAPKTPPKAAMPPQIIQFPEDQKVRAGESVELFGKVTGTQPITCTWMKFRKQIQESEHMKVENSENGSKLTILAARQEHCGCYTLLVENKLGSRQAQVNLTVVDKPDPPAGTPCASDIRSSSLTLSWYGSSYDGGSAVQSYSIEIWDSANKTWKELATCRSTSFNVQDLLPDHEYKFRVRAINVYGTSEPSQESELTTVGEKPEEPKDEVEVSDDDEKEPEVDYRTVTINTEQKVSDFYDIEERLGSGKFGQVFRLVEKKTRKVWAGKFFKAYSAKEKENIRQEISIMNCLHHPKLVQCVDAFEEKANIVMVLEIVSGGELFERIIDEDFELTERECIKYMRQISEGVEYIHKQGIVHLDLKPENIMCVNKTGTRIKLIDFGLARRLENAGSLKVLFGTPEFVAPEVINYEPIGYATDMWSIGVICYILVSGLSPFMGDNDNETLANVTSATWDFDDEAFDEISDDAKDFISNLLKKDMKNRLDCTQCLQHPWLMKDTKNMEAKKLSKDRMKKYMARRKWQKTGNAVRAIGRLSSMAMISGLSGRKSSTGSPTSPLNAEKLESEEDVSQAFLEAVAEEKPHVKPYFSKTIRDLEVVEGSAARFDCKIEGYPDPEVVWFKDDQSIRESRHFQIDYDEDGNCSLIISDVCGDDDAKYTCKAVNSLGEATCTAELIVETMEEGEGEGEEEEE

For the compound `C[C@@H](Oc1cc(C(=O)Nc2ccc(C(=O)N3CCN(C)CC3)cc2)nnc1N)c1c(Cl)ccc(F)c1Cl`, the Kd in experiment [1], in experiment [2], in experiment [3], in experiment [4], in experiment [5] and in experiment [6] was > 30 µM (inactive) in each case. Besides, in experiment [7], the Kd is > 30 µM (inactive).

Take `C[C@H]1CNCCCN1S(=O)(=O)c1cccc2cncc(F)c12`: the Kd in experiment [1], in experiment [2], in experiment [3], in experiment [4], in experiment [5] and in experiment [6] was > 30 µM (inactive) throughout.

With `C=CC(=O)N1CCC[C@H](n2c(=O)n(-c3ccc(Oc4ccccc4)cc3)c3c(N)ncnc32)C1`, the Kd was > 30 µM (inactive) in experiment [1]; > 30 µM (inactive) in experiment [2]; > 30 µM (inactive) in experiment [3]; > 30 µM (inactive) in experiment [4]; 0.019 µM (active) in experiment [5]; > 30 µM (inactive) in experiment [6]. For the same compound, in experiment [7], the Kd is > 30 µM (inactive).

As to `Cc1nc2cc(-c3nn(C(C)C)c4ncnc(N)c34)ccc2o1`, the Kd in experiment [1] was 0.139 µM (active); in experiment [2] it was > 30 µM (inactive); in experiment [3], > 30 µM (inactive); in experiment [4] it was > 30 µM (inactive); in experiment [5], > 30 µM (inactive); in experiment [6], 0.881 µM (active). Besides, the Kd in experiment [7] was > 30 µM (inactive).

As for `COCc1c(-c2ccc(NC(=O)Nc3cc(C(F)(F)F)ccc3F)c(F)c2)c2c(N)ncnn2c1CN1CCOCC1`, the dissociation constant Kd is 3.25 µM (active) in experiment [1]; > 30 µM (inactive) in experiment [2]; > 30 µM (inactive) in experiment [3]; > 30 µM (inactive) in experiment [4]; > 30 µM (inactive) in experiment [5]; 0.314 µM (active) in experiment [6]. In experiment [7], the Kd was > 30 µM (inactive).

For the compound `Nc1ncnc2c1c(-c1cccc(OCc3ccccc3)c1)cn2[C@H]1C[C@@H](CN2CCC2)C1` [AEW-541], the Kd in experiment [1], in experiment [2], in experiment [3], in experiment [4], in experiment [5] and in experiment [6] was > 30 µM (inactive) each time. Further, in experiment [7], the Kd is > 30 µM (inactive).

For the compound `Cc1nc(NC(=O)N2CCC[C@H]2C(N)=O)sc1-c1ccnc(C(C)(C)C(F)(F)F)c1` [ALPELISIB], the Kd in experiment [1], in experiment [2], in experiment [3], in experiment [4], in experiment [5] and in experiment [6] was > 30 µM (inactive) throughout. Also, in experiment [7], the Kd was > 30 µM (inactive).

Regarding `Cc1csc(-c2nnc(Nc3ccc(Oc4ncccc4-c4ccnc(N)n4)cc3)c3ccccc23)c1` [AMG-900], the Kd in experiment [1] is 0.298 µM (active); in experiment [2], > 30 µM (inactive); in experiment [3], > 30 µM (inactive); in experiment [4] it was > 30 µM (inactive); in experiment [5], > 30 µM (inactive); in experiment [6] it was 0.11 µM (active). In addition, in experiment [7], the Kd was > 30 µM (inactive).

`C=CC(=O)Nc1cc2c(Nc3ccc(F)c(Cl)c3)ncnc2cc1C#CC(C)(C)N1CCN(C)CC1` [AV-412 FREE BASE]: the Kd in experiment [1] is > 30 µM (inactive); in experiment [2], > 30 µM (inactive); in experiment [3], > 30 µM (inactive); in experiment [4] it was > 30 µM (inactive); in experiment [5] it was 0.01 µM (active); in experiment [6], > 30 µM (inactive). For the same compound, the Kd in experiment [7] is > 30 µM (inactive).

Turning to `COc1cc([C@@H]2c3cc4c(cc3[C@H](O)[C@H]3COC(=O)[C@@H]23)OCO4)cc(OC)c1OC` [AXL-1717], the Kd in experiment [1], in experiment [2], in experiment [3], in experiment [4], in experiment [5] and in experiment [6] was > 30 µM (inactive) each time. Besides, the Kd in experiment [7] is > 30 µM (inactive).

For `Cc1nc2cc(-n3ncc(C(=O)c4cc5ccccc5[nH]4)c3N)ccc2[nH]1` [FGFR INHIBITOR DEBIO 1347], the Kd in experiment [1], in experiment [2], in experiment [3], in experiment [4], in experiment [5] and in experiment [6] was > 30 µM (inactive) throughout.

For the compound `CNC(=O)c1cccc2cc(Oc3ccnc4cc(OCC5(N)CC5)c(OC)cc34)ccc12` [LUCITANIB], the Kd is 0.094 µM (active) in experiment [1]; > 30 µM (inactive) in experiment [2]; > 30 µM (inactive) in experiment [3]; > 30 µM (inactive) in experiment [5]; 0.014 µM (active) in experiment [6]; > 30 µM (inactive) in experiment [7].

Consider `CCS(=O)(=O)c1cccc(-c2cc(C(=O)NC3CCN(C)CC3)c(C)c3[nH]c4ncc(C)cc4c23)c1` [TAK-901], for which the Kd in experiment [2] was > 30 µM (inactive); in experiment [3], 2.76 µM (active); in experiment [4] it was > 30 µM (inactive); in experiment [5], 1.47 µM (active); in experiment [6] it was 13.8 µM (active); in experiment [7], > 30 µM (inactive).

For `C[C@@H](NC(=O)c1ncnc(N)c1Cl)c1ncc(C(=O)Nc2cc(C(F)(F)F)c(Cl)cn2)s1` [TOVORAFENIB], the equilibrium dissociation constant (Kd) in experiment [1] was 0.227 µM (active); in experiment [3], > 30 µM (inactive); in experiment [4], 4.41 µM; in experiment [5], > 30 µM (inactive); in experiment [6], 0.063 µM (active); in experiment [7], > 30 µM (inactive).

Take `CC(C)c1cc(CNc2nc(Nc3cc(C4CC4)[nH]n3)cc(N3CCN(C)CC3)n2)on1` [XL-228]: the Kd in experiment [1] is 4.96 µM (active); in experiment [2], > 30 µM (inactive); in experiment [3] it was 1.12 µM (active); in experiment [4], > 30 µM (inactive); in experiment [5], > 30 µM (inactive); in experiment [7], > 30 µM (inactive).

Broadly, the Kd is a measure of binding affinity in units of concentration.
